Read-outs that look alike come from different tables or passages of the source. Blank lines part the entries; values can stand above or below the molecule they belong to. Positions of bridges follow the written chain, without caps; N, C: chain ends. No end group written: not given here.
Columns and labels:
[1] = test system: experimental animals; conditions: micromolar levels; cited from earlier work
[2] = test system: sickle red blood cells; conditions: cited from earlier work
[3] = test system: sickle patients; conditions: low sodium diet; cited from earlier work
[4] = at appropriate levels in the blood stream; cited from earlier work
[5] = test system: human red blood cells; assay: Red cell swelling / mean cell volume (Coulter Counter); format: cell-based
Protocol: (§1) Human red blood cells were obtained by venepuncture into Na citrate or EDTA vacutainers. They were used directly or stored in serum at 4° C. for various times. Serum and leucocytes were removed by siphoning and the settled red blood cells were washed once and finally made to a 0.15% suspension with isotonic NaCl containing 5 mM KH2 PO4 (pH 6.2). These cells were kept at 2° C. for selected periods of time during a first incubation. From this point on, all experiments were performed in subdued light to protect the light-sensitive phlorizin benzylazide. The phlorizin benzylazide obtained from the synthesis described above was added at the desired concentrations, and during this variable temperature second incubation (2°-4° C. in presence of phlorizin benzylazide), the turbidity of the cell suspension was monitored at 610 nm with a continuously recording spectrophotometer to measure hemolysis. A relatively constant level of absorbance of light indicates decreased hemolysis occurring at the lower dosage and this was verified by concomitant counting of cells with a hemacytometer. Some typical data are shown in FIG. 1 showing the change in absorbance of light (note axis A) when the drug was added (at zero time).
In these experiments (n=2) red cells had been stored in serum for 30 hours, and experienced a first incubation for 60 min at 4° C. and a second incubation with 12.5 μM phlorizin benzylazide at 4° C. for 5 and 10 min. […] The Coulter Counter, an automated instrument which determines the number and volume of cells passing through an analysis chamber, was used to make these measurements.

[6] = test system: sugar transporter; assay: Interaction with the sugar (glucose) transporter of human red blood cells; format: biochemical
From the text: (§2) From the above, it is clear that a need exists for a safe, effective and clinically useful compound for the treatment of sickle cell anemia. […] After allowing the compound to associate with its specific membrane receptor, activation with light was expected to result in relatively specific, covalent, irreversible labeling of the transporter.

[7] = test system: normal human red blood cells; assay: Initial photoaffinity-labeling experiments: effect on red blood cells before illumination; format: cell-based; conditions: isotonic buffer; time and drug dose-dependent
From the text: as §2

[8] = test system: sickle red blood cells; assay: Inhibition of sickling induced by deoxygenation in vitro (whole blood of sickle cell disease patients, phase microscopy); format: cell-based, human; conditions: 12.5 μM, 37° C.
Protocol: Whole blood was obtained from several volunteer sickle cell disease patients and was stored for several days at 4° C. […] Instead, whole blood was diluted into pre-warmed (37° C.) isotonic phosphate-buffered saline (± phlorizin benzylazide, 12.5 μM) which was then deoxygenated by continuous passage of an 100% Argon stream (1 liter/min) over a rotating thin film of the suspended cells. Aliquots were periodically taken, without O2 exposure, and fixed in 1% glutaraldehyde. These samples were then examined under phase microscopy for the degree of sickling by counting fields of at least 100 cells using a single blind, experimental protocol.
The data shown in FIG. 4 illustrate that without phlorizin benzylazide present, about 35-40% of the cells from these patients assumed the typical sickle shape (only cells having a 3:1, length:width ratio were considered to be sickled); whereas, with the phlorizin benzylazide, the deoxygenation caused a maximum increase of 5% more than the 10% of cells already sickled at zero time. Actually, the effect of phlorizin benzylazide is even more dramatic. […] The 10-15% sickled cells present at zero time are probably the so-called irreversibly sickled cells (ISC).

[9] = Hemolysis of normal human red blood cells (turbidity at 610 nm); format: cell-based; conditions: human, red blood cells, cells 2 hours old, 30 min incubation, approx. 4° C., within 700 sec, n=4
Protocol: as §1
(§3) The dose-response curve of phlorizin benzylazide acting as a hemolytic agent of normal cells is shown in FIG. 3 and the following table:
(§4) In FIG. 3, potency is expressed as the ratio, % hemolysis/t1/2, where t1/2 represents the time (seconds) required to achieve 50% of the total hemolysis produced by the particular concentration of the compound within the time of our measurements (700 sec). The cells used for these experiments were 2 hours old, and subjected to an incubation for 30 minutes before the addition of phlorizin benzylazide and continuing thereafter at approximately 4° C. (n=4). […] Thus, this blood level concentration provides anti-sickling action by reducing the concentration of hemoglobin S with an influx of water and/or salt into the cells. Further, this is accomplished with little or no red blood cell lysis and, therefore, minimum adverse side effects.

[10] = test system: normal human red blood cells; assay: as above; format: cell-based; conditions: for t1/2 (time required to achieve 50% of the total hemolysis): approx. 4° C., n=4
Protocol: as §1, §3, §4

[11] = Safety observation in rats (behavior, gross examination, histology); format: in vivo
Protocol: (§5) An animal study was then conducted to determine the absorption and elimination and characteristics of the phlorizin benzylazide and the resulting level of safety. Three adult rats of approximately 450 grams each were injected intraperitoneally at zero time in 1, 2 and 3 mg doses of tritiated phlorizin benzylazide (875,000 cpm/mg). Thereafter, serial tail blood samples were taken at varying times and analyzed for tritium. Maximal absorption of the compound from the peritoneal compartment was slow (note FIG. 5) and maximum blood level concentrations were obtained only after about 20 hours. The initial very rapid entry and elimination of a small fraction of the radioactivity was probably tritiated H2 O and other radioactive impurities. […] The absorption rate constant was estimated to be 0.07 hr^-1. […] This feature could, of course, offer advantages for therapy in a sickle cell crisis wherein long term effectiveness is desired.

[12] = Absorption and elimination of tritiated compound in rats (blood tritium after intraperitoneal injection); format: in vivo; conditions: for Cmax: rat approx. 450 g, read-out: peak concentration in the blood
Protocol: as §5

[13] = 12.5 μM, 4° C., 5 and 10 min, n=2 (FIG. 2)
[14] = 16 (head: κ M) phlorizin benzylazide
[15] = 31 (head: κ M) phlorizin benzylazide
[16] = 62 (head: κ M) phlorizin benzylazide

Molecule: CC[C@@]1([C@@H]2O[C@@H]([C@H]3O[C@@](O)(CO)[C@H](C)C[C@@H]3C)C[C@@H]2C)CC[C@H]([C@]2(C)CC[C@]3(C[C@H](O)[C@@H](C)[C@@H]([C@@H](C)[C@@H](OC)[C@H](C)C(=O)O)O3)O2)O1 [Monensin]
toxicity [1]: highly toxic
deformability of the red blood cell [2]: some improvemement in the deformability of the red blood cell

Molecule: anti-diuretic hormone: anti-diuretic hormone given to sickle patients on a low sodium diet to reduce plasma Na+-osmolality (CYFQNCPRG-NH2; disulfide 1-6; UniProt P01185 20-28, looked up)
clinical success (reduction of plasma Na+ osmolality / cell hemoglobin S concentration) [3]: very limited success

Molecule: O=C(CCc1ccc(O)cc1)c1c(O)cc(O)cc1O [phloretin]
toxic effects [4]: toxic effects at all sites in the body

lysis during swelling experiment [5, 13]: essentially no lysis
Cmax ([12]; intraperitoneal, 1 mg): 2.5 µM
Cmax ([12]; intraperitoneal, 2 mg): 5.1 µM
Cmax ([12]; intraperitoneal, 3 mg): 6.3 µM
elimination process ([12]; rat, intraperitoneal): first order process
mean half life (elimination) ([12]; rat, intraperitoneal): 75 h
maximal absorption from the peritoneal compartment ([12]; rat, intraperitoneal (FIG. 5)): slow
time of maximum blood level concentration ([12]; rat, intraperitoneal, 1, 2 and 3 mg): about 20 hours
absorption rate constant ([12]; rat, intraperitoneal, estimated): 0.07 h⁻¹
Molecule: [N-]=[N+]=Nc1ccc(Cc2c(O)cc(O[C@@H]3O[C@H](CO)[C@@H](O)[C@H](O)[C@H]3O)c(C(=O)CCc3ccc(O)cc3)c2O)cc1 [phlorizin benzylazide]
mean cell volume [5, 13]: a time dependent increase in mean cell volume
cell swelling ([5]; low phlorizin benzylazide levels, approx. 4° C.): cell swelling occurred
affinity for the sugar transporter ([6]; subdued light): high, but reversible
inhibition of the transfer mechanism ([6]; sugar transporter): potent inhibitor
effect on red blood cells before illumination [7]: the red blood cells were found to swell and, in a time and drug dose-dependent manner, burst even in an isotonic buffer
cell shape on deoxygenation ([8]; 100% Argon): a uniform spherocytosis was induced in most cells
maximum increase of sickled cells on deoxygenation, over the 10% already sickled at zero time ([8]; 100% Argon, without compound about 35-40% sickled (FIG. 4)): 5%
hemolysis in the deoxygenation experiment ([8]; Example 2): no significant hemolysis
hemolysis at 4 µM ([9]; 4 (head: κ M) phlorizin benzylazide): 0%
hemolysis at 8 µM ([9]; 8 (head: κ M) phlorizin benzylazide): 0%
hemolysis at 16 µM [9, 14]: 31 ± 8.6%
hemolysis at 31 µM [9, 15]: 41 ± 9.6%
hemolysis at 62 µM [9, 16]: 66 ± 8%
t1/2 (time required to achieve 50% of the total hemolysis) [10, 14]: 7.5 min
t1/2 (time required to achieve 50% of the total hemolysis) [10, 15]: 4.33 min
t1/2 (time required to achieve 50% of the total hemolysis) [10, 16]: 3.88 min
cell lysis ([10]; concentrations below 10 μM): no cell lysis was observed
cell lysis, extent and rate (FIG. 1) ([10]; higher vs lower level of phlorizin benzylazide, 2°-4° C.): a greater percentage of cell lysis (an absorbance of 0.087 represents 100% lysis) but the rate at which the cells burst was much faster
gross examination of all tissues ([11]; rat, 1, 2 and 3 mg intraperitoneal): unremarkable
behavioral abnormalities ([11]; rat, 1, 2 and 3 mg intraperitoneal, 5 days (lowest dosage) or 7 weeks): None of the animals exhibited any unusual behavioral abnormalities
histological examination of the liver and kidney ([11]; rat, two older animals (7 weeks)): no pathology
